Laboratory results: US20240368145A1, “METHODS FOR TREATING CANCER” (IMMUNIC AG, priority 2021, published 2024)

Assays:
AR-V7 protein = test: Androgen receptor protein expression (western blot) in 22Rv1: AR-V7; type: cell-based, human; conditions: 22Rv1, 6 μM, 48 h; western blot quantification
Experimental: (§1) After 48 h, cell were lysed using cell extraction buffer (Life Technologies #FNN0011) for western blot. […] The membrane is then incubation for 1 hour in blocking buffer (5% milk in 20 mM Tris, 150 mM NaCl, pH 7.5, 0.05% Tween 20 [TBS-T]). After this incubation, the primary antibody is added and incubated overnight at 4° C. After washing, the membrane was incubated with the secondary antibody for 1 h. Visualization of the bands was performed using the femto maximum sensitivity substrate reagent and the luminescence signal recorded with the Fusion FX7 (Vilber). For protein quantification, InageJ was used.

AR-V7 mRNA = test: Androgen receptor RNA level expression (qRT-PCR) in 22Rv1: AR-V7; type: cell-based; conditions: 22Rv1, 1 μM, 48 h; for mrna remaining at 1 µM: Homo sapiens
Experimental: (§2) The prostate cancer cell line 22Rv1 was treated for 48 h with 1 μM Example compound 1, 1/1, 1/2, 2/1, 2/2, 2/3, 2/4, 2/5, 2/6, 2/7, 2/8, 2/9 and 2/10 and the reference compounds SR2211 and XY018 (Nat. Med. 2016; 22:488). RNA was extracted using the RNA isolation kit XS (Macherey-Nagel) and following the manufacture's manual. RNA quantity was measured with the Nanodrop before reverse transcription using Superscript II (Invitrogen #100004925). For the quantitative real-time PCR with SYBR-Green (Qiagen #204074), the following primers were used: AR forward-ACATCAAGGAACTCGATCGTATCATTGC and reverse-TTGGGCACTTGCACAGAGAT, AR-V7: forward-CCATCTTGTCGTCTTCGGAAATGTTATGAAGC and reverse-TTTGAATGAGGCAAGTCAGCCTTTCTT. The qRT-PCR proceeded as follows: denaturation for 5 min 95° C.; 40 cycles of “20 sec at 95° C. and 15 sec at 60° C.” and at the end of the last cycle, the melting temperature of the products was determined by gradually increasing it from 60° C. to 99° C. CT values from all samples were normalized to two different reference (housekeeping) genes using the mean CT value of the GAPDH and YWHAZ (reference genes). Next the values are normalized to the untreated control (vehicle/DMSO).

KLK2 mRNA = test: Expression of AR target genes (qRT-PCR) in 22Rv1: KLK2; type: cell-based; conditions: 22Rv1, 1 μM; for KLK2 mRNA expression / mrna remaining at 1 µM: 48h, relative to vehicle control (DMSO); for KLK2 mRNA level expression: 48 h; for mrna remaining at 1 µM: Homo sapiens
Experimental: (§3) The prostate cancer cell line 22Rv1 was treated for 48h with 1 μM Example compound 1, 1/1, 2/1, 2/2, 2/3, 2/4, 2/5, 2/6, 2/7, 2/8, 2/9 and 2/10 and reference compounds SR2211 and XY018. RNA was extracted using the RNA isolation kit XS (Macherey-Nagel) and following the manufacture's manual. RNA quantity was measured with the Nanodrop before reverse transcription using Superscript II (Invitrogen #100004925). For the quantitative real-time PCR with SYBR-Green (Qiagen #204074), the following primers were used:
(§4) qRT-PCR was performed using SYBR-Green (Qiagen #204074) reagents in a PCR cycler (Gorbett Research) Rotor Gene RG3000 with the following program: denaturation for 5′ at 95° C.; 40 cycles of 20″ at 95° C. and 15″ at 60° C.″ and at the end of the last cycle, the melting temperature of the products was determined by gradually increasing from 60° C. to 99° C. CT values from all samples were normalized to reference (housekeeping) genes using the mean CT value of the GAPDH and YWHAZ (reference genes). Next the values are put relative to the untreated control (vehicle/DMSO).

AR-FL protein = test: Androgen receptor protein expression (western blot) in 22Rv1: AR-FL; type: cell-based, human; conditions: 22Rv1, 6 μM, 48 h; western blot quantification
Experimental: as §1

[1] = test system: full length AR (AR-FL) mRNA; test: Androgen receptor RNA level expression (qRT-PCR) in 22Rv1: AR-FL; type: cell-based; conditions: 22Rv1, 1 μM, 48 h; for AR-FL mRNA expression / mrna remaining at 1 µM: normalized to untreated control (vehicle/DMSO); for mrna remaining at 1 µM: Homo sapiens
Experimental: as §2

CAMKK2 mRNA = test: Expression of AR target genes (qRT-PCR) in 22Rv1: CAMKK2; type: cell-based; conditions: 22Rv1, 1 μM, 48h; relative to vehicle control (DMSO)
Experimental: as §3, §4

NKX3.1 mRNA = test: Expression of AR target genes (qRT-PCR) in 22Rv1: NKX3.1; type: cell-based; conditions: Homo sapiens; 22Rv1, 1 μM, 48h; relative to vehicle control (DMSO)
Experimental: as §3, §4

IFNγ = test: Cytokine assay, human PBMC stimulated with PHA: IFNγ; type: cell-based; conditions: PHA-activated, 48 hours, read-out: IFNγ inhibition (IC50 range)
Experimental: (§5) Peripheral blood mononuclear cells (PBMC) from healthy human donors were purified using Accuspin™ System-Histopaque-1077 (Sigma) according to the protocol recommended by the manufacturer. Purified PBMC were then washed twice with phosphate-buffered saline (PBS) and resuspended in RPMI1640 culture medium supplemented with 10% dialyzed heat inactivated fetal calf serum, 1.5 mM L-glutamine, 100 U penicillin/mL and […] streptomycin/mL (all from PAN Biotech, Aidenbach, Germany). For stimulation, PBMC were seeded at 1×10^5 cells/well, activated with 2 gg/mL phytohaemagglutinin (PHA, Sigma) and incubated with the test compounds for 48 hours. IL-17A, IL-17F and INFγ were then determined in the culture supernatant using a Luminex BioPlex system, following the manufacturer's instructions (BioRad, Munich, Germany). To determine the IC50, compounds were titrated semilogarithmically.
(§6) Cytokines were determined in the aforementioned culture supernatant using the following methods: IL-17A was measured using the human homodimer IL-17A ELISA Ready Set Go Kit from cBioscience (Frankfurt, Germany); IL-17F using the human IL-17F ELI-Pair from Holzel Diagnostica GmbH (K51n, Germany); and IFNγ using the OptEIA human IFN-g ELISA from BD Bioscience (Heidelberg, Germany), all following the manufacturer's instructions.

AML cell line HL-60 = test: CellTiter-Blue proliferation assay, HL-60; type: cell-based; conditions: Homo sapiens, geometric mean relative IC50, 72 hours, read-out: IC50 range for cell line HL-60
Experimental: (§7) Aim of this study was to evaluate compounds of Example 1, 1/1, 2/2, 2/5 and 2/6 in a proliferation assays. The 5 test compounds were tested in a CellTiter-Blue® based proliferation assay in three AML cell lines (HL-60, THP-1 and MOLM-13). The compounds were tested at 10 concentrations in half-log increments (highest concentration 30 μM or 100 μM) in duplicates. The incubation period with the applied compounds was fixed to 72 hours.

FKBP5 mRNA = test: Expression of AR target genes (qRT-PCR) in 22Rv1: FKBP5; type: cell-based; conditions: Homo sapiens; 22Rv1, 1 μM, 48h; relative to vehicle control (DMSO)
Experimental: as §3, §4

AML cell line THP-1 = test: CellTiter-Blue proliferation assay, THP-1; type: cell-based; conditions: Homo sapiens, geometric mean relative IC50, 72 hours, read-out: IC50 range for cell line THP-1
Experimental: as §7

IL-17A = test: Cytokine assay, human PBMC stimulated with PHA: IL-17A; type: cell-based; conditions: PHA-activated, 48 hours, read-out: IL-17A inhibition (IC50 range)
Experimental: as §5, §6

AML cell line MOLM-13 = test: CellTiter-Blue proliferation assay, MOLM-13; type: cell-based; conditions: Homo sapiens, geometric mean relative IC50, 72 hours, read-out: IC50 range for cell line MOLM-13
Experimental: as §7

IL-17F = test: Cytokine assay, human PBMC stimulated with PHA: IL-17F; type: cell-based; conditions: PHA-activated, 48 hours, read-out: IL-17F inhibition (IC50 range)
Experimental: as §5, §6

[2] = normalized to untreated control (vehicle/DMSO)

| AR-V7 mRNA expression (AR-V7 mRNA; [2]) | AR-FL mRNA expression [1] | IC50 (IFNγ) | AR-V7 mRNA expression (AR-V7 mRNA) | IC50 (AML cell line HL-60) | IC50 (AML cell line THP-1) | IC50 (IL-17A) | full length AR (AR-FL) mRNA expression [1] | IC50 (AML cell line MOLM-13) | IC50 (IL-17F) | SMILES | AR-V7 protein level (AR-V7 protein) | KLK2 mRNA expression (KLK2 mRNA) | AR-FL protein level (AR-FL protein) | CAMKK2 mRNA expression (CAMKK2 mRNA) | mrna remaining at 1 µM (NKX3.1 mRNA) | mrna remaining at 1 µM (AR-V7 mRNA; [2]) | KLK2 mRNA level expression (KLK2 mRNA) | mrna remaining at 1 µM (KLK2 mRNA) | mrna remaining at 1 µM (FKBP5 mRNA) | mrna remaining at 1 µM [1] |
| --- | --- | --- | --- | --- | --- | --- | --- | --- | --- | --- | --- | --- | --- | --- | --- | --- | --- | --- | --- | --- |
| 1.059 | 1.058 |  |  |  |  |  |  |  |  | OC(c1ccc(-c2ccc(CN3CCN(Cc4ccncc4)CC3)cc2)c(F)c1)(C(F)(F)F)C(F)(F)F [SR2211, reference compound] | 0.728 | 1.284 | 0.675 | 1.009 |  |  |  |  |  |  |
| 1.237 | 1.111 |  |  |  |  |  |  |  |  | O=C(Cc1ccccc1[N+](=O)[O-])Nc1ccc(-c2ccc(C(O)(C(F)(F)F)C(F)(F)F)cc2F)cc1 [XY018, reference compound] | 0.653 | 0.831 | 0.588 | 0.959 |  |  |  |  |  |  |

Continued, molecule first:

| SMILES | AR-V7 mRNA expression (AR-V7 mRNA; [2]) | AR-FL mRNA expression [1] | IC50 (IFNγ) | AR-V7 mRNA expression (AR-V7 mRNA) | IC50 (AML cell line HL-60) | IC50 (AML cell line THP-1) | IC50 (IL-17A) | full length AR (AR-FL) mRNA expression [1] | IC50 (AML cell line MOLM-13) | IC50 (IL-17F) | AR-V7 protein level (AR-V7 protein) | KLK2 mRNA expression (KLK2 mRNA) | AR-FL protein level (AR-FL protein) | CAMKK2 mRNA expression (CAMKK2 mRNA) | mrna remaining at 1 µM (NKX3.1 mRNA) | mrna remaining at 1 µM (AR-V7 mRNA; [2]) | KLK2 mRNA level expression (KLK2 mRNA) | mrna remaining at 1 µM (KLK2 mRNA) | mrna remaining at 1 µM (FKBP5 mRNA) | mrna remaining at 1 µM [1] |
| --- | --- | --- | --- | --- | --- | --- | --- | --- | --- | --- | --- | --- | --- | --- | --- | --- | --- | --- | --- | --- |
| COC(=O)c1c(-c2c(F)cccc2Cl)noc1-c1cnn([C@H]2C[C@@](C)(O)C2)c1C(F)(F)F [Example 2/2] |  |  | < 25 nM | strong reduction | < 10 nM | 10 to 100 nM | < 25 nM | strong reduction | < 10 nM | < 25 nM |  |  |  |  | 25.5% | 19.9% | strong inhibition | 34.1% | 24.6% | 38% |
| C[C@]1(O)C[C@@H](n2ncc(-c3onc(-c4ccccc4Cl)c3-c3ncccn3)c2C(F)(F)F)C1 [2/6] |  |  | < 25 nM | strong reduction | < 10 nM | 10 to 100 nM | < 25 nM | strong reduction | < 10 nM | < 25 nM |  |  |  |  | 44% | 30.4% | strong inhibition | 42.8% | 33.8% | 54.9% |
| C[C@]1(O)C[C@@H](n2ncc(-c3onc(-c4c(F)cccc4Cl)c3-c3ncccn3)c2C(F)(F)F)C1 [2/5] |  |  | < 25 nM | strong reduction | < 10 nM | < 10 nM | < 25 nM | strong reduction | < 10 nM | < 25 nM |  |  |  |  | 30.7% | 23.9% | strong inhibition | 37.7% | 27.1% | 45.4% |
